# From paper PMC11342128, “Gold(I) and gold(III) carbene complexes from the marine betaine norzooanemonin: inhibition of thioredoxin reductase, antiproliferative and antimicrobial activity” (RSC Medicinal Chemistry, 2024)
# What was measured:
# [1] = system: Pseudomonas aeruginosa DSM 24068; assay: Antibacterial activity (MIC, curve fitting); format: cell-based; conditions: Table S12; ± standard error of the mean
# [2] = system: Acinetobacter baumannii DSM30007; assay: Antibacterial activity (MIC, curve fitting); format: cell-based; conditions: Table S12; ± standard error of the mean
# [3] = system: methicillin-resistant Staphylococcus aureus DSM 11822; assay: Antibacterial activity (MIC, curve fitting); format: cell-based; conditions: Table S12; ± standard error of the mean
# [4] = system: Escherichia coli DSM 1116; assay: Antibacterial activity (MIC, curve fitting); format: cell-based; conditions: Table S12; ± standard error of the mean
# [5] = system: Vero E6 African green monkey kidney cells; assay: Antiproliferative activity in non-tumour reference cell line; format: cell-based; conditions: for IC50: Vero E6 non-tumour reference cell line, SD in parentheses, n = 3; for Tumour selectivity: tumour cell lines in comparison to Vero E6: comparison of IC50 in tumour cell lines and non-tumour Vero E6
# Description: The antiproliferative potential of the gold–NHC complexes was determined in A549 lung carcinoma cells, MDA-MB-231 breast cancer cells, MCF-7 breast adenocarcinoma cells, and HT-29 colon carcinoma cells (Table 1). Vero E6 African green monkey kidney cells served as a reference cell line to check for possible tumour selectivity. Auranofin (AF) was used as an established reference drug.[15,17] […]
# S2.2. Cytotoxicity and Anticancer Studies
# Cell culture and cytotoxicity
# Cell lines were sourced from DSMZ (German Collection of Microorganisms and Cell Cultures GmbH) and maintained through standard procedures in Dulbecco's Modified Eagle Medium (DMEM) supplemented with 10% fetal calf serum and 50 mg/L gentamycin. Antiproliferative effects were assessed using a well-established assay protocol. In brief, 100 μL volumes of A549 cells (13,243 cells per mL), HT-29 cells (14,657 cells per mL), MDA-MB-231 cells (6,613 cells per mL), or MCF-7 cells (6,917 cells per mL) were transferred into the wells of 96-well plates and incubated at 37°C/5% CO2 for 72 […]
# Freshly prepared stock solutions of the compounds in DMSO were diluted with the respective cell culture medium to achieve graded concentrations (final concentration of DMSO: 0.1% v/v). After 72 hours (A549, HT-29) or 96 hours (MCF-7, MDA-MB-231) of exposure, the cell biomass was assessed through crystal violet staining, and the IC50 value was determined as the concentration causing 50% inhibition of cell proliferation compared to an untreated control. Results were calculated as the mean values of three independent experiments.
# [6] = target: TrxR from E. coli (Escherichia coli, UniProt P0A9P4); assay: Inhibition of isolated bacterial TrxR, DTNB-based assay; format: biochemical; design: purchased Sigma-Aldrich; conditions: compounds at 0.5 µM; n = 2; Table S13
# Description: The inhibition of isolated TrxR from E. coli was determined for the selected monocarbene gold(I/III) complexes 2a–c and 4b–c using a DTNB-based assay (Table 3). […] The inhibition of bacterial TrxR for compound 2a was investigated in our previous report (Table 3).
# S2.3. Inhibition of bacterial TrxR from E. coli
# The TrxR (E. coli) inhibition assay was performed according to previously published procedures.[8] The assay is partly based on the procedure developed by Lu et al[9] and makes use of the reduction of DTNB (5,5′-dithiobis-(2-nitrobenzoic acid)). Solutions of E. coli TrxR (10.1 U/mL) and E. coli thioredoxin (Trx) (312 μg/mL) (both purchased from Sigma-Aldrich) were prepared in distilled water. Stock solutions of the test compounds (2 mM) were prepared in DMSO and serially diluted with TE buffer (Tris-HCl 50 mM, EDTA 1 mM, pH 7.5). 20 μL of these solutions or TE buffer without the test compounds (positive control) were mixed with the TrxR solution (10 μL), the Trx solution (10 μL) and 100 µl of NADPH (200 μM) in TE buffer in a well on a 96-well plate. As a blank control, 200 μM NADPH in TE buffer (100 μL) mixed with a DMSO / buffer mixture (40 μL) was used (final concentrations of DMSO: 0.5% v/v). The plate was incubated for 75 min at 25°C with moderate shaking. After incubation, 100 μL of a reaction mixture (TE buffer containing 200 μM NADPH and 5 mM DTNB) was added to each well to initiate the reaction. After thorough mixing, the formation of 5-TNB was monitored by a microplate reader at 405 nm in 35 s intervals (10 measurements). The values were corrected by subtraction of the blank solution absorption values. The increase in concentration of 5-TNB followed a linear trend (r2≥ 0.990) and the enzymatic activities were calculated as the gradients (increase in absorbance per second) thereof. […]
# for each test compound, where the highest test compound concentration was used and the enzyme solution was replaced by TE buffer. The inhibition is presented as the mean IC50 values and standard deviations obtained in three independent experiments.
# Table S13. Activity of TrxR from E. coli in presence of compounds at 0.5 µM (n = 2, n.d.= not
# Sequence of TrxR from E. coli (P0A9P4 2-321): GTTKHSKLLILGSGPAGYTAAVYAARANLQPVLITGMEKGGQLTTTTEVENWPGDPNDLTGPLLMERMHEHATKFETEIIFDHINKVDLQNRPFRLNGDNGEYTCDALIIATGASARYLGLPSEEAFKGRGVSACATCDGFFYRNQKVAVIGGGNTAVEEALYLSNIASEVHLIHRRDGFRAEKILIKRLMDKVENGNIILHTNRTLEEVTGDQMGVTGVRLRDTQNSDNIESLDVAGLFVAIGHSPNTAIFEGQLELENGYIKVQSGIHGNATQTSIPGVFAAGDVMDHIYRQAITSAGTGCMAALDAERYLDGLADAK
Compound,"MIC, P. aeruginosa [1]","MIC, A. baumannii [2]","MIC, MRSA [3]","MIC, E. coli [4]",IC50 [5],"TrxR activity, % of control [6]",Tumour selectivity: tumour cell lines in comparison to Vero E6 [5]
Cn1cc(C(=O)O)[n+](C)[c]1[Au-]([Cl])([Cl])[c]1n(C)cc(C(=O)O)[n+]1C.[Cl-] [5a],> 100 µM,> 100 µM,> 100 µM,> 100 µM,> 100 µM,91.6 % of control,
COC(=O)c1cn(C)[c]([Au-]([Cl])([Cl])[c]2n(C)cc(C(=O)OC)[n+]2C)[n+]1C.O=S(=O)([O-])C(F)(F)F [5b],> 100 µM,> 100 µM,> 100 µM,> 100 µM,> 100 µM,90.8 % of control,clear preference for the tumour cell lines
CCOC(=O)c1cn(C)[c]([Au-]([Cl])([Cl])[c]2n(C)cc(C(=O)OCC)[n+]2C)[n+]1C.F[B-](F)(F)F [5c],> 100 µM,> 100 µM,23.15 ± 0 µM,> 100 µM,30.8 µM,93.5 % of control,clear preference for the tumour cell lines
